The results in this text go back to PMC6646405, “A quantitative, high-throughput method identifies protein–glycan interactions via mass spectrometry” (Communications Biology, 2019).

The experiment has as its target T1, human siglec-2 (CD22) (Homo sapiens, UniProt P20273).
T1 construct: Residues 1–332 of human Siglec-2 (MW 140 kDa, purity > 95%) were cloned in frame with human IgG1 Fc and a C-terminal His6; made in house
T1 sequence (P20273 20-332): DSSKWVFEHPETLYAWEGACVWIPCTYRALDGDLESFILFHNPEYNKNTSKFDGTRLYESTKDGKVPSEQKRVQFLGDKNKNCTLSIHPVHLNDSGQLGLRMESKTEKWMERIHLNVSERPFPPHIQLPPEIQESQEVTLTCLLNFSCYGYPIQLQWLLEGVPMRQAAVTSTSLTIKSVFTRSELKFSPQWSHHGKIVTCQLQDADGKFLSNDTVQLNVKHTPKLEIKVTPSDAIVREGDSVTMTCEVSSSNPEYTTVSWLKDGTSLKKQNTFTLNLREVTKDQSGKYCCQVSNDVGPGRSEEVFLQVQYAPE
As to the kind of experiment: CUPRA library screening and affinity, siglec-2. Format: binding. Particulars: for average DI: mean of 4 DIi values.

With `CC(=O)N[C@H]1[C@H](O[C@@H]2[C@H](O[C@]3(C(=O)O)C[C@H](O)[C@@H](NC(C)=O)[C@H]([C@H](O)[C@@H](CO)O[C@]4(C(=O)O)C[C@H](O)[C@@H](NC(C)=O)[C@H]([C@H](O)[C@H](O)CO)O4)O3)[C@@H](O)[C@H](O[C@H]3[C@H](O)[C@@H](O)[C@H](N(CCOCCOCCNC(=O)[C@H](Cc4ccccc4)NC(=O)[C@H](Cc4ccccc4)NC(=O)CCCC(=O)NCCc4ccc(S(N)(=O)=O)cc4)C(C)=O)O[C@@H]3CO)O[C@@H]2CO)O[C@H](CO)[C@H](O)[C@@H]1O` [GA10, GalNAcβ1-4(Neu5Acα2-8 Neu5Acα2-3)Galβ1-4Glc-CL], the “average DI” value is, setting by setting: (25uM CD22) 0.9974; (25uM CD22 at 0C) 0.9401. Besides, the “DIi(25uM CD22)” value (25uM CD22, replicate column 1 of 4) worked out at 0.9925; the “DIi(25uM CD22)” value (25uM CD22, replicate column 2 of 4) was determined as 1.005; the “DIi(25uM CD22)” value (25uM CD22, replicate column 3 of 4) is 0.9899; the “DIi(25uM CD22)” value (25uM CD22, replicate column 4 of 4) is recorded as 1.002. The “DIi(25uM CD22 at 0C)” value (25uM CD22 at 0C, replicate column 1 of 4) is listed as 0.9406; the “DIi(25uM CD22 at 0C)” value (25uM CD22 at 0C, replicate column 2 of 4) amounted to 0.9609; the “DIi(25uM CD22 at 0C)” value (25uM CD22 at 0C, replicate column 3 of 4) stood at 0.9196; the “DIi(25uM CD22 at 0C)” value (25uM CD22 at 0C, replicate column 4 of 4) was 0.9395.
